Drawing on patent US8729083B2, “Pyrazole compounds for controlling invertebrate pests” (BASF SE, priority 2008, dated 2014), this text covers mortality for one compound.

Common to all, as to assay type: in vivo
One assay relates to Megoura viciae. Briefly: Vetch aphid (Megoura viciae), bean leaf disks in microtiterplates. The note with it: foliar, 144 h, test solution 2500 mg/L, leaf disks sprayed with 2.5 μl, 6 days. As to the method: II.5 Vetch Aphid (Megoura viciae)
The active compounds were formulated in 1:3 (vol:vol) DMSO:water with different concentrations of formulated compounds.
Bean leaf disks were placed into microtiterplates filled with 0.8% agar-agar and 2.5 ppm OPUS™. The leaf disks were sprayed with 2.5 μl of the test solution and 5 to 8 adult aphids were placed into the microtiterplates which were then closed and kept at 23±1° C. and 50±5% relative humidity under fluorescent light for 6 days. Mortality was assessed on the basis of vital, reproduced aphids. Aphid mortality and fecundity was then visually assessed.

Assay [1] concerns Myzus persicae. Briefly: Green peach aphid (Myzus persicae) through systemic means, artificial diet under membrane. The settings on record: 72 h, pipetted into aphid diet, 3 days, read-out: mortality in comparison with untreated controls. The source says: II.9 Activity Against Green Peach Aphid (Myzus persicae)
For evaluating control of green peach aphid (Myzus persicae) through systemic means the test unit consisted of 96-well-microtiter plates containing liquid artificial diet under an artificial membrane.
The compounds were formulated using a solution containing 75% v/v water and 25% v/v DMSO. Different concentrations of formulated compounds were pipetted into the aphid diet, using a custom built pipetter, at two replications. After application, 5 to 8 adult aphids were placed on the artificial membrane inside the microtiter plate wells The aphids were then allowed to suck on the treated aphid diet and incubated at about 23+1° C. and about 50+5% relative humidity for 3 days. Aphid mortality and fecundity was then visually assessed.

Assay [2] deals with Myzus persicae. Briefly: Green peach aphid (Myzus persicae, mixed life stages), method b: electrostatic spray on bell pepper. The note with it: 120 h, sprayed, after 5 days, read-out: mortality in comparison with untreated controls. Here is the method: II.2 Green Peach Aphid (Myzus persicae, Mixed Life Stages)
(§1) The active compounds were formulated in cyclohexanone as a 10,0000 ppm solution supplied in 1.3 ml ABgene® tubes. These tubes were inserted into an automated electrostatic sprayer equipped with an atomizing nozzle and they served as stock solutions for which lower dilutions were made in 50% acetone:50% water (v/v). A nonionic surfactant (Kinetic®) was included in the solution at a volume of 0.01% (v/v).
Bell pepper plants at the first true-leaf stage were infested prior to treatment by placing heavily infested leaves from the main colony on top of the treatment plants. Aphids were allowed to transfer overnight to accomplish an infestation of 30-50 aphids per plant and the host leaves were removed. The infested plants were then sprayed by an automated electrostatic plant sprayer equipped with an atomizing spray nozzle. The plants were dried in the sprayer fume hood, removed, and then maintained in a growth room under fluorescent lighting in a 24-hr photoperiod at 25° C. and 20-40% relative humidity. Aphid mortality on the treated plants, relative to mortality on untreated control plants, was determined after 5 days.

Another assay relates to Anthonomus grandis. Briefly: Boll weevil (Anthonomus grandis), eggs on insect diet in microtiter plates. The settings on record: 120 h, test solution 2500 mg/L, 20 μl sprayed onto diet, 5 days, read-out: mortality (egg and larval). Here is the method: II.6 Boll Weevil (Anthonomus grandis)
The compounds were formulated in 75:25 (vol:vol) water:DMSO.
For evaluating control of boll weevil (Anthonomus grandis) the test unit consisted of 24-well-microtiter plates containing an insect diet and 20-30 A. grandis eggs. Different concentrations of formulated compounds were sprayed onto the insect diet at 20 μl, using a custom built micro atomizer, at two replications. After application, the microtiter plates were incubated at 23±1° C. and 50±5% relative humidity for 5 days. Egg and larval mortality was then visually assessed.

In another assay the test system is Aphis gossypii. Briefly: Cotton aphid (Aphis gossypii, mixed life stages), method b: electrostatic spray. The settings on record: 120 h, sprayed, after 5 days, read-out: mortality in comparison with untreated controls. Here is the method: II.1 Cotton Aphid (Aphis gossypii, Mixed Life Stages)
as §1
Cotton plants at the cotyledon stage were infested with aphids prior to treatment by placing a heavily infested leaf from the main aphid colony on top of each cotyledon. Aphids were allowed to transfer overnight to accomplish an infestation of 80-100 aphids per plant and the host leaf was removed. The infested plants were then sprayed by an automated electrostatic plant sprayer equipped with an atomizing spray nozzle. The plants were dried in the sprayer fume hood, removed from the sprayer, and then maintained in a growth room under fluorescent lighting in a 24 hr photoperiod at 25° C. and 20-40% relative humidity. Aphid mortality on the treated plants, relative to mortality on untreated control plants, was determined after 5 days.

The test system of the next assay is Aphis craccivora. Briefly: Cowpea aphid (Aphis craccivora), spray on potted cowpea plants. The settings on record: sprayed, population reduction assessed after 24, 72 and 120 hours, read-out: mortality in comparison with untreated controls. Here is the method:
II.3 Cowpea Aphid (Aphis craccivora)
The active compounds were formulated in 50:50 (vol:vol) acetone:water. The test solution was prepared at the day of use.
Potted cowpea plants colonized with 100-150 aphids of various stages were sprayed after the pest population had been recorded. Population reduction was assesed after 24, 72, and 120 hours.

The subject of another assay is Dichromothrips Corbetti. Briefly: Vanda/orchid thrips (Dichromothrips corbetti), dipped orchid petals. The note with it: after 72 hours, read-out: mortality in comparison with untreated controls. Here is the method: II.11 Activity Against Vanda/Orchid Thrips (Dichromothrips Corbetti)
The active compounds were formulated as a 50:50 (vol:vol) acetone:water solution. Surfactant (Alkamuls EL 620) was added at the rate of 0.1% (vol/vol). Vanda orchids petals were cleaned, washed and air dried prior to spraying. Petals were dipped into the test solution for 3 seconds, air dried, placed inside a resealable plastic and inoculated with 20 adults. The treated petals were kept inside the holding room at 28-29° C. and relative humidity of 50-60%. Percent mortality was recorded after 72 hours.

Broadly, the mortality is the percentage killed. For `Cc1c(C(=O)Nc2ccnnc2)cnn1CC(F)(F)F` [Compound 1, 5-Methyl-1-(2,2,2-trifluoroethyl)-1H-pyrazole-4-carboxylic acid pyridazin-4-ylamide], the mortality at 2500 µg/mL was at least 90% in the assay on Megoura viciae and at least 50% in the assay with Anthonomus grandis. Also, in the assay with Myzus persicae [1], the mortality at 2500 ppm came out at 100%. In addition, the mortality at 300 ppm was at least 75% in the assay with Myzus persicae [2], at least 75% in the assay with Aphis gossypii and at least 90% in the assay with Aphis craccivora. For the same compound, in the assay on Dichromothrips Corbetti, the mortality at 500 ppm is at least 50%.
